Data: patent US20210230313A1, “SULFUR-CONTAINING GLYCANS AND POLYSACCHARIDES AND METHODS OF CHEMOENZYMATIC SYNTHESIS THEREOF” (priority 2018, published 2021)

Key:
PmHS-I = assay: Radiochemical incorporation assay, co-polymerization with UDP-[3H]GlcA, paper chromatography; type: biochemical, Pasteurella multocida; conditions: GAG synthase PmHS-I 1 mg/ml; test UDP-sugar 0.5 mM; UDP-[3H]GlcA 0.08 mM; 30° C., 5.5 hours
Description: (§1) For polymerization tests, for example, the various oligosaccharide acceptors were incubated with two types of UDP-sugars at 2 mM as noted under the same conditions as the single sugar extensions above. Radioactive UDP-sugars (e.g., UDP-[^3H]GlcA) were used to monitor co-polymerization reactions with the thiosugar-donors separated by various modes of chromatography. The general reaction catalyzed by a GAG synthase in these tests is:
(§2) n UDP-4S-HexNAc+n UDP-[^3H]GlcA+acceptor-->2n UDP+[4S-HexNAc+UDP-[^3H]GlcA]n-acceptor
(§3) where HexNAc is GlcNAc, GalNAc, or another sugar or sugar derivative. Reactions used radioactive UDP-GlcA (0.08 mM final; 0.1 microCi ^3H) and the authentic UDP-sugars (a positive control) or their thio-analogs (0.5 mM final) with a GAG synthase (1 mg/ml) in neutral pH buffer (50 mM Hepes, pH 7.2) with divalent cation (1 mM Mn^2+) at 30° C. for 5.5 hours (note: the HA [PmHAS] and chondroitin [PmCS] synthase reactions also employed the stabilizer 1M ethylene glycol). The reactions were quenched (2% SDS detergent), and analyzed by paper chromatography. The small radioactive UDP-sugar precursors are polymerized by the synthase, resulting in larger products (stay at the origin of the paper; any unused precursor migrates down the paper); such data is shown in Table 3.
(§4) Chimeric enzymes that included differing portions of both PmHS1 (GenBank Accession #AAL84702) and PmHS2 (GenBank Accession #AAQ55109) were created and tested for their ability to synthesize polymers from the sulfur-containing UDP-4-S-GlcNAc. As shown below in Table 2, the corresponding numbers describe the original residue numbers of the source parental synthase sequence as noted.
(§5) Overall, the Chimeric B construct (PmHS-B) appears to be the best catalyst tested thus far for incorporating 4-S-GlcNAc into a heparosan-like S-linked polymer.

PmHS-J = assay: as above; type: biochemical, Pasteurella multocida; conditions: GAG synthase PmHS-J 1 mg/ml; test UDP-sugar 0.5 mM; UDP-[3H]GlcA 0.08 mM; 30° C., 5.5 hours; * = significant thio-sugar incorporation into polymer
Description: as §1, §2, §3, §4, §5

PmHS-B = assay: as above; type: biochemical, Pasteurella multocida; conditions: GAG synthase PmHS-B 1 mg/ml; test UDP-sugar 0.5 mM; UDP-[3H]GlcA 0.08 mM; 30° C., 5.5 hours; * = significant thio-sugar incorporation into polymer
Description: as §1, §2, §3, §4, §5

PmHS-G = assay: as above; type: biochemical, Pasteurella multocida; conditions: GAG synthase PmHS-G 1 mg/ml; test UDP-sugar 0.5 mM; UDP-[3H]GlcA 0.08 mM; 30° C., 5.5 hours; * = significant thio-sugar incorporation into polymer
Description: as §1, §2, §3, §4, §5

PmHS-D = assay: as above; type: biochemical, Pasteurella multocida; conditions: GAG synthase PmHS-D 1 mg/ml; test UDP-sugar 0.5 mM; UDP-[3H]GlcA 0.08 mM; 30° C., 5.5 hours
Description: as §1, §2, §3, §4, §5

[1] = biological target: T1, bacterial heparin lyase III (Pedobacter heparinus, UniProt Q59289); assay: Heparin lyase III challenge of HEP polymers, PAGE analysis; type: biochemical; conditions: 50 mM ammonium acetate, pH 7.0, 20 h at 30° C., loss of signal on PAGE (FIG. 8)
T1 sequence (Q59289 25-659): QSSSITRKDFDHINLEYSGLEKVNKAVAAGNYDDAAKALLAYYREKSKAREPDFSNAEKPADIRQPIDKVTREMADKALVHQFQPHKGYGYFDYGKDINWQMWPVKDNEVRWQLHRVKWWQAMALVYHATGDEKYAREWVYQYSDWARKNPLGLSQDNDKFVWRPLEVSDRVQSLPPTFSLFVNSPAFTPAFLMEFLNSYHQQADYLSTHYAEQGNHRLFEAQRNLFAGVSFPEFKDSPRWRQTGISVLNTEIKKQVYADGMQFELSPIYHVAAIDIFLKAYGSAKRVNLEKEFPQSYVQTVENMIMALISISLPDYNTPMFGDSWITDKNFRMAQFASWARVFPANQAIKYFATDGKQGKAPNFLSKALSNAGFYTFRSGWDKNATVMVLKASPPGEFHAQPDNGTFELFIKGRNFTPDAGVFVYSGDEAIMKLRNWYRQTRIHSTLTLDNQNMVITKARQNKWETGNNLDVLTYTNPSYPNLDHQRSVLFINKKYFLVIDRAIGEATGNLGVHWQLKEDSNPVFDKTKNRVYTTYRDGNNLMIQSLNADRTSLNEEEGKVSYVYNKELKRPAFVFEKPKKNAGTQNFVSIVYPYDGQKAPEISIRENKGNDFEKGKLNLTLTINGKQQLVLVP
Description: Polymerization reactions and PAGE analysis. HEP trisaccharide (30 ng/ul) was incubated with 10 mM […] and either 10 mM 4-thio- or authentic UDP-GlcNAc, with PmHS-G (0.5 mg/ml), 1 mM MnCl2, and 50 mM Hepes, pH 7.2, for 20 h at 30° C. The reactions were then diluted in water and split into two aliquots, (i) a untreated control (−) and (ii) a heparin lyase III treated in 50 mM ammonium acetate, pH 7.0, for 20 h at 30° C. (+). The samples were then analyzed on a 6% 1×TBE PAGE (250 V, 15 min) and stained with 0.05% Alcian Blue followed by silver staining (BioRad Silver Stain kit).
Polymerization reactions producing longer HEP chains with either native (4-OH) or analog (4-SH) donors were analyzed for size on PAGE gels and stained. The gel depicts the polysaccharides made with both natural UDP-donors (native HEP) or by using the thio-GlcNAc analog and UDP-GlcA to form Hemi-A HEP.
Both polymers were challenged with bacterial heparin lyase III (+lanes). […] This finding is predicted as the enzyme digests the C—O—C glycosidic link that still exists in both types of HEP species.

PmHS-A = assay: Radiochemical incorporation assay, co-polymerization with UDP-[3H]GlcA, paper chromatography; type: biochemical, Pasteurella multocida; conditions: GAG synthase PmHS-A 1 mg/ml; test UDP-sugar 0.5 mM; UDP-[3H]GlcA 0.08 mM; 30° C., 5.5 hours
Description: as §1, §2, §3, §4, §5

Row | Compound | 3H radioactivity at the origin (dpm) (PmHS-I) | 3H radioactivity at the origin (dpm) (PmHS-J) | 3H radioactivity at the origin (dpm) (PmHS-B) | 3H radioactivity at the origin (dpm) (PmHS-G) | 3H radioactivity at the origin (dpm) (PmHS-D) | Susceptibility to digestion by bacterial heparin lyase [1] | 3H radioactivity at the origin (dpm) (PmHS-A)
1 | CC(=O)N[C@H]1[C@@H](OP(=O)(O)OP(=O)(O)OC[C@H]2O[C@@H](n3ccc(=O)[nH]c3=O)[C@H](O)[C@@H]2O)O[C@H](CO)[C@@H](S)[C@@H]1O [UDP-4S-GlcNAc, UDP-4-SH-GlcNAc] | 42 dpm | 480 * dpm | 800 * dpm | 510 * dpm | 42 dpm |  | 
2 | (-4-GlcA-1-beta-S-4-GlcNAc-1-alpha-O)n [Hemi-A HEP] |  |  |  |  |  | sensitive to digestion | 
3 | CC(=O)N[C@H]1[C@@H](OP(=O)(O)OP(=O)(O)OC[C@H]2O[C@@H](n3ccc(=O)[nH]c3=O)[C@H](O)[C@@H]2O)O[C@H](CO)[C@@H](O)[C@@H]1O [UDP-GlcNAc, UDP-N-acetylglucosamine] | 3,900 dpm | 12,200 dpm | 9,020 dpm | 8,900 dpm | 4,140 dpm |  | 9,230 dpm
